According to patent US7049322B2 (priority 2002, dated 2006):

Legend:
[1] = Moisture sorption/desorption (VTI SGA-100 moisture balance); assay type: physicochemical; details: for hygroscopicity: 5 to 95% RH
Description: The samples were not dried prior to analysis.

[2] = XRPD after storage in a closed vial at ambient conditions; assay type: physicochemical; details: 31 days
Experimental: X-ray powder diffraction analyses were carried out on a Shimadzu XRD-6000 X-ray powder diffractometer using Cu Kα radiation having a wavelength of 1.5406 Å. The instrument is equipped with a fine-focus X-ray tube. The tube power was set by setting potential difference at 40 kV, and current 40 mA. The divergence and scattering slits were set at 1° and the receiving slit was set at 0.15 mm. Diffracted radiation was detected by a NaI scintillation detector. A theta-two theta continuous scan at 3°/min (0.4 sec/0.02° step) from 2.5 to 40 °2θ was performed. A silicon standard was analyzed each day to check the instrument alignment. Each sample was analyzed in a quartz sample holder. A variable temperature (VT-XRPD) experiment was performed on one form. The sample was prepared for analysis by pressing it into a variable temperature holder. A powder pattern was collected initially at 35° C. and again, after heating, at 200° C.

[3] = clinical trials, cited from earlier work
[4] = Dehydration/desolvation under vacuum, XRPD; assay type: physicochemical
Description: The characterization of this weight loss as THF solvent is supported by the ^1H NMR data.

CC[C@@]1(O)C(=O)OCc2c1cc1n(c2=O)Cc2cc3c([N+](=O)[O-])cccc3nc2-1 [Form A, 9-nitrocamptothecin]
water gained upon equilibration to 5% RH ([1]; 5% RH): 0.01%
hygroscopicity [1]: not hygroscopic

CC[C@@]1(O)C(=O)OCc2c1cc1n(c2=O)Cc2cc3c([N+](=O)[O-])cccc3nc2-1 [Form B, 9-nitrocamptothecin]
stability of the crystalline polymorph (XRPD pattern unchanged) [2]: relatively stable
water lost upon equilibration at 5% RH ([1]; 5% RH): 0.98%
hygroscopicity [1]: relatively hygroscopic

CC[C@@](O)(C(=O)[O-])c1cc2n(c(=O)c1CO)Cc1cc3ccccc3nc1-2.[Na+] [Sodium camptothecin]
side effects ([3]; administered intravenously): unpredictable side effects such as myelosuppression and hemorrhagic cystitis
antineoplastic activity ([3]; early 1970's): found to have antineoplastic activity

CC[C@@]1(O)C(=O)OCc2c1cc1n(c2=O)Cc2cc3c([N+](=O)[O-])cccc3nc2-1 [Form C, 9-nitrocamptothecin]
form after attempted desolvation [4]: becomes amorphous
